The results in this text go back to patent US9763957B2, “Autotaxin inhibitors” (Novartis AG, priority 2013, dated 2017).

pIC50: −log10 of the molar value.

For the experiment, the target named is Recombinant human ATX (Homo sapiens (Human), UniProt Q13822). Briefly: ATX inhibition assay (choline release, Amplex Red fluorescence). Format: biochemical. The following applies: ATX 10 nM, LPC 18:1 10 μM, 37° C., 20 min pre-incubation; mean of n≧2. The method, boiled down: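 Activity was taken from the slope of resorufin fluorescence (530/590 nm, read every 2 min for 40 min at 37 °C) produced by choline liberated from 10 μM oleoyl LPC.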
As for `Cc1nnn(Cc2cc(Cl)ccc2/C=C/C(=O)N2CCC(c3nnc(CN4CCOCC4)o3)CC2)n1` [Example 134, (E)-3-(4-Chloro-2-((5-methyl-2H-tetrazol-2-yl)methyl)phenyl)-1-(4-(5-(morpholinomethyl)-1,3,4-oxadiazol-2-yl)piperidin-1-yl)prop-2-en-1-one], the pIC50 was 7.92.

On to `Cc1nnn(Cc2cc(Cl)ccc2/C=C/C(=O)N2CCN(Cc3cnn(C)c3)C[C@H]2C)n1` [Example 73, (R,E)-3-(4-Chloro-2-((5-methyl-2H-tetrazol-2-yl)methyl)phenyl)-1-(2-methyl-4-((1-methyl-1 H-pyrazol-4-yl)methyl)piperazin-1-yl)prop-2-en-1-one], for which the pIC50 was 8.38.

On to `CNC(=O)COC1CCN(C(=O)/C=C/c2ccc(Cl)cc2Cn2nnc(C)n2)CC1` [Example 49.19, (E)-2-((1-(3-(4-Chloro-2-((5-methyl-2H-tetrazol-2-yl)methyl)phenyl)acryloyl)piperidin-4-yl)oxy)-N-methylacetamide], for which the pIC50 is 6.75. For `Cc1nnn(Cc2cc(Cl)ccc2/C=C/C(=O)N2CCC(O)(Cn3cc(C(=O)N(C)C)cn3)CC2)n1` [Example 15, (E)-1-((1-(3-(4-Chloro-2-((5-methyl-2H-tetrazol-2-yl)methyl)phenyl)acryloyl)-4-hydroxypiperidin-4-yl)methyl)-N,N-dimethyl-1H-pyrazole-4-carboxamide], the pIC50 was 7.21.

With `Cc1nnn(Cc2cc(C(F)(F)F)ccc2OCC(=O)N2CCC(CCCCCc3c[nH]nn3)CC2)n1` [Example 154, 1-(4-(5-(1H-1,2,3-Triazol-4-yl)pentyl)piperidin-1-yl)-2-(2-((5-methyl-2H-tetrazol-2-yl)methyl)-4-(trifluoromethyl)phenoxy)ethanone], the pIC50 was 8.62. To `Cc1noc(C2CCCCN2C(=O)/C=C/c2ccc(C(F)(F)F)cc2Cn2nnc(C)n2)n1` (single isomer, unassigned) [Example 5b, (R,E)-1-(2-(3-methyl-1,2,4-oxadiazol-5-yl)piperidin-1-yl)-3-(2-((5-methyl-2H-tetrazol-2-yl)methyl)-4-(trifluoromethyl)phenyl)prop-2-en-1-one or (S,E)-1-(2-(3-methyl-1,2,4-oxadiazol-5-yl)piperidin-1-yl)-3-(2-((5-methyl-2H-tetrazol-2-yl)methyl)-4-(trifluoromethyl)phenyl)prop-2-en-1-one] belongs 6.92; to `Cc1nnn(Cc2cc(C(F)(F)F)ccc2OCC(=O)N2CCC(c3noc(C)n3)CC2)n1` [Example 36, 1-(4-(5-Methyl-1,2,4-oxadiazol-3-yl)piperidin-1-yl)-2-(2-((5-methyl-2H-tetrazol-2-yl)methyl)-4-(trifluoromethyl)phenoxy)ethanone], 6.77. In the case of `Cc1nnn(Cc2cc(C(F)(F)F)ccc2/C=C/C(=O)N2CCCCC2C(F)(F)F)n1` (stereo not drawn) [Example 124, (E)-3-(2-((5-Methyl-2H-tetrazol-2-yl)methyl)-4-(trifluoromethyl)phenyl)-1-(2-(trifluoromethyl)piperidin-1-yl)prop-2-en-1-one] it was 7.46; in that of `Cc1nnn(Cc2cc(Cl)ccc2/C=C/C(=O)N2CCN(Cc3cnn(C)c3)CC2)n1` [Example 140.9, (E)-3-(4-Chloro-2-((5-methyl-2H-tetrazol-2-yl)methyl)phenyl)-1-(4-((1-methyl-1H-pyrazol-4-yl)methyl)piperazin-1-yl)prop-2-en-1-one], 7.47. In the case of `COC(=O)C1CCCCN1C(=O)/C=C/c1ccc(Cl)cc1Cn1nnc(C)n1` (stereo not drawn) [Example 29, (E)-Methyl 1-(3-(4-Chloro-2-((5-methyl-2H-tetrazol-2-yl)methyl)phenyl)acryloyl) piperidine-2-carboxylate] it was 7.49; in that of `Cc1csc(C(O)C2CCN(C(=O)/C=C/c3ccc(Cl)cc3Cn3nnc(C)n3)CC2)n1` (stereo not drawn) [Example 63, (E)-3-(4-Chloro-2-((5-methyl-2H-tetrazol-2-yl)methyl)phenyl)-1-(4-(hydroxy(4-methylthiazol-2-yl)methyl)piperidin-1-yl)prop-2-en-1-one], 8.26. Consider `Cc1noc(Cc2cc(Cl)ccc2/C=C/C(=O)N2CCN(Cc3coc(C)n3)CC2)n1` [Example 76, (E)-3-(4-Chloro-2-((3-methyl-1,2,4-oxadiazol-5-yl)methyl)phenyl)-1-(4-((2-methyloxazol-4-yl)methyl)piperazin-1-yl)prop-2-en-1-one], for which the negative logarithm of the IC50 (pIC50) is 7.14.

Consider `Cc1nnn(Cc2cc(C(F)(F)F)ccc2/C=C/C(=O)N2CCN(C(=O)OC(C)(C)C)CC2)n1` [Example 68, (E)-tert-Butyl-4-(3-(2-((5-methyl-2H-tetrazol-2-yl)methyl)-4-(trifluoromethyl)phenyl)acryloyl)piperazine-1-carboxylate], for which the pIC50 is 8.35. On to `Cc1nnn(Cc2cc(Cl)ccc2/C=C/C(=O)N2CCN(C3CCN(C(=O)c4c[nH]nn4)CC3)CC2)n1` [Example 149, (E)-1-(4-(1-(1H-1,2,3-Triazole-4-carbonyl)piperidin-4-yl)piperazin-1-yl)-3-(4-chloro-2-((5-methyl-2H-tetrazol-2-yl)methyl)phenyl)prop-2-en-1-one], for which the pIC50 was 8.31. In the case of `Cc1nnn(Cc2c(F)cccc2/C=C/C(=O)N2CCC(Cc3nnc(C)o3)CC2)n1` [Example 78, (E)-3-(3-Fluoro-2-((5-methyl-2H-tetrazol-2-yl)methyl)phenyl)-1-(4-((5-methyl-1,3,4-oxadiazol-2-yl)methyl)piperidin-1-yl)prop-2-en-1-one] it was 5.84; in that of `Cc1nnc(CC2CCN(C(=O)/C=C/c3ccc(Cl)cc3Cn3ncnn3)CC2)o1` [Example 77, (E)-3-(2-((2H-Tetrazol-2-yl)methyl)-4-chlorophenyl)-1-(4-((5-methyl-1,3,4-oxadiazol-2-yl)methyl)piperidin-1-yl)prop-2-en-1-one], 5.70. To `Cc1nnn(Cc2cc(OC(F)(F)F)ccc2/C=C/C(=O)N2CCC(c3noc(C)n3)CC2)n1` [Example 3, (E)-1-(4-(5-Methyl-1,2,4-oxadiazol-3-yl)piperidin-1-yl)-3-(2-((5-methyl-2H-tetrazol-2-yl)methyl)-4-(trifluoromethoxy)phenyl)prop-2-en-1-one] belongs 7.92.

Regarding `Cc1nnn(Cc2cc(Cl)ccc2/C=C/C(=O)N2CCC(n3nnnc3C)CC2)n1` [Example 12, (E)-3-(4-Chloro-2-((5-methyl-2H-tetrazol-2-yl)methyl)phenyl)-1-(4-(5-methyl-1H-tetrazol-1-yl)piperidin-1-yl)prop-2-en-1-one], the pIC50 is 6.80. In the case of `Cc1nnn(Cc2cc(Cl)ccc2/C=C/C(=O)N2CCC(O)(Cn3cc(C(F)(F)F)cn3)CC2)n1` [Example 18, (E)-3-(4-Chloro-2-((5-methyl-2H-tetrazol-2-yl)methyl)phenyl)-1-(4-hydroxy-4-((4-(trifluoromethyl)-1H-pyrazol-1-yl)methyl)piperidin-1-yl)prop-2-en-1-one] it was 7.43; in that of `Cc1nnn(Cc2cc(C(F)(F)F)ccc2/C=C/C(=O)N2CCC(N(C)C(=O)c3ccc(F)cc3)CC2)n1` [Example 87], 7.72. On to `Cc1nnn(Cc2cc(C(F)(F)F)ccc2/C=C/C(=O)N2CCC(c3nnc(C4CCC4)o3)CC2)n1` [Example 103, (E)-1-(4-(5-Cyclobutyl-1,3,4-oxadiazol-2-yl)piperidin-1-yl)-3-(2-((5-methyl-2H-tetrazol-2-yl)methyl)-4-(trifluoromethyl)phenyl)prop-2-en-1-one], for which the pIC50 was 8.28.
